Patent US10633348B2, “Methods to treat lymphoplasmacytic lymphoma” (Dana-Farber Cancer Institute, Inc., priority 2013, dated 2020)

Legend:
Format in all cases: cell-based
[1] = tested on: WM patient primary lymphoplasmacytic cells (LPCs); test: Apoptosis analysis (Annexin V/Propidium iodide); details: for Apoptosis (%): 24 hours
Procedure: WM cells were treated with and without the compounds described herein. Cells were incubated at 37° C. with 0.01˜4 uM of the compounds described herein. Apoptosis analysis was performed using Annexin V/Propidium iodide staining with the Apoptosis Detection Kit I (BD Pharmingen). 1×10^6/well cells were treated in 24 well plates for ˜24 hours with inhibitors or corresponding controls. A minimum of 10,000 events were acquired using a BD™ FACSCanto II flow cytometer and analyzed with BD FACS DIVA Software.
Apoptosis analysis of WM patient primary lymphoplasmacytic cells (LPCs) was preformed following A-5 and A-14 treatment of Bone marrow mononuclear cells (BMMC) from WM patients for 24 hours. Apoptosis analysis was performed using Annexin V/Propidium iodide staining with the Apoptosis Detection Kit I (BD Pharmingen) in CD19-APC-cy7 antibody (BD Pharmingen) gated LPCs population.

[2] = tested on: MAST1, MAST2; test: KiNativ kinase profiling in A375 cells; details: Lys2, SEQ ID NO 96, 1.0 μM
[3] = tested on: SYK
[4] = tested on: SMG1
[5] = tested on: MAP2K7
[6] = tested on: IRAKI
[7] = tested on: MLK4
[8] = tested on: PI4KB
[9] = tested on: NEK1
[10] = tested on: PLK1
[11] = tested on: CLK3
[12] = tested on: ERK2
[13] = tested on: CK1a
[14] = tested on: PIK3C3
[15] = tested on: CaMK1a
[16] = tested on: JAK3 domain2
[17] = tested on: BARK1
[18] = tested on: MST3
[19] = tested on: JAK1 domain2
[20] = tested on: MAP3K5
[21] = tested on: TAO1, TAO3; test: KiNativ kinase profiling in A375 cells; details: Lys2, SEQ ID NO 182, 1.0 μM
[22] = tested on: SNRK
[23] = tested on: PKN1
[24] = tested on: PCTAIRE2, PCTAIRE3; test: KiNativ kinase profiling in A375 cells; details: Lys1, SEQ ID NO 135, 1.0 μM
[25] = tested on: STLK5
[26] = tested on: MARK4
[27] = tested on: IKKb
[28] = tested on: LKB1
[29] = tested on: IKKe
[30] = tested on: CDK7
[31] = tested on: TAO2
[32] = tested on: PIP4K2C
[33] = tested on: FER
[34] = tested on: TLK2
[35] = tested on: DGKH
[36] = tested on: ITPK1
[37] = tested on: AurA
[38] = tested on: MYO3A, MYO3B; test: KiNativ kinase profiling in A375 cells; details: Lys2, SEQ ID NO 115, 1.0 μM

In the case of `CCN1CCN(Cc2ccc(NC(=O)c3ccc(C)c(Oc4ccnc(Nc5cnn(C)c5)n4)c3)cc2C(F)(F)F)CC1` [(A-14), N-(4-((4-ethylpiperazin-1-yl)methyl)-3-(trifluoromethyl)phenyl)-4-methyl-3-((2-((1-methyl-1H-pyrazol-4-yl)amino)pyrimidin-4-yl)oxy)benzamide], the “Apoptosis (%)” value ([1]; Patient 5, 0.5 μM) is reported as 39.24%, the “Apoptosis (%)” value ([1]; Patient 5, 1.0 μM) is reported as 46.86% and the “Apoptosis (%)” value ([1]; Patient 6, 1.0 μM) is reported as 20.88%. For the same compound, the “Apoptosis (%)” value ([1]; Patient 7, 0.5 μM) was 22.62%, the “Apoptosis (%)” value ([1]; Patient 7, 1.0 μM) was 31.51% and the “Apoptosis (%)” value ([1]; Patient 8, 0.5 μM) was 12.9%. The “Apoptosis (%)” value ([1]; Patient 8, 1.0 μM) was 31.58%, the “Apoptosis (%)” value ([1]; Patient 9, 0.2 μM) was 24.8% and the “Apoptosis (%)” value ([1]; Patient 9, 1.0 μM) was 43.7%. For the same compound, the “Apoptosis (%)” value ([1]; Patient 10, 0.2 μM) was 27.9%, the “Apoptosis (%)” value ([1]; Patient 10, 1.0 μM) was 52% and the “Apoptosis (%)” value ([1]; Patient 11, 0.2 μM) was 53.1%. The “Apoptosis (%)” value ([1]; Patient 11, 1.0 μM) was 71.8% and the “apoptosis compared with DMSO control” value ([1]; WM patient primary LPCs) was “induced significant apoptosis”.

For `CCN1CCN(Cc2ccc(NC(=O)c3ccc(C)c(Oc4cc(N)ncn4)c3)cc2C(F)(F)F)CC1` [(A-4), 3-((6-aminopyrimidin-4-yl)oxy)-N-(4-((4-ethylpiperazin-1-yl)methyl)-3-(trifluoromethyl)phenyl)-4-methylbenzamide], the “inhibition of kinase labeling” value [2] was 35.6%, the “inhibition of kinase labeling” value [3] was 17.4% and the “inhibition of kinase labeling” value [4] was −4.0%. The “inhibition of kinase labeling” value [5] was −38.2%, the “inhibition of kinase labeling” value [6] was −3.5% and the “inhibition of kinase labeling” value [7] was −1.7%. The “inhibition of kinase labeling” value [8] was −0.2%, the “inhibition of kinase labeling” value [9] was −3.0% and the “inhibition of kinase labeling” value [10] was −9.1%. The “inhibition of kinase labeling” value [11] was −52.8%, the “inhibition of kinase labeling” value [12] was −3.8% and the “inhibition of kinase labeling” value [13] was −0.6%. For the same compound, the “inhibition of kinase labeling” value [14] was −5.1%, the “inhibition of kinase labeling” value [15] was 12.4% and the “inhibition of kinase labeling” value [16] was 7.7%. For the same compound, the “inhibition of kinase labeling” value [17] was −13.4%, the “inhibition of kinase labeling” value [18] was −3.7% and the “inhibition of kinase labeling” value [19] was −6.2%. For the same compound, the “inhibition of kinase labeling” value [20] was −30.4%, the “inhibition of kinase labeling” value [21] was 76.5% and the “inhibition of kinase labeling” value [22] was 18.0%. For the same compound, the “inhibition of kinase labeling” value [23] was −32.1%, the “inhibition of kinase labeling” value [24] was 11.7% and the “inhibition of kinase labeling” value [25] was 5.0%. The “inhibition of kinase labeling” value [26] was 2.9%, the “inhibition of kinase labeling” value [27] was −12.6% and the “inhibition of kinase labeling” value [28] was −6.0%. For the same compound, the “inhibition of kinase labeling” value [29] was −9.9%, the “inhibition of kinase labeling” value [30] was 3.9% and the “inhibition of kinase labeling” value [31] was 86.0%. For the same compound, the “inhibition of kinase labeling” value [32] was 5.2%, the “inhibition of kinase labeling” value [33] was 91.4% and the “inhibition of kinase labeling” value [34] was 7.1%. For the same compound, the “inhibition of kinase labeling” value [35] was −6.3%, the “inhibition of kinase labeling” value [36] was 1.2% and the “inhibition of kinase labeling” value [37] was −16.0%. For the same compound, the “inhibition of kinase labeling” value [38] was −15.3%.
